Laboratory results as given in patent US20110160081A1, “FUNCTIONAL COMPLEMENTATION ASSAY FOR DEFINED GPCR OLIGOMERS” (priority 2008, published 2011).

How the values were obtained:
[1] = system: WT D2R coexpressed with D2/D4-Gqi5; test: Aequorin functional complementation assay, WT D2R as protomer A with D2/D4-Gqi5 as protomer B; format: cell-based, human; details: L745,870 1 μM; agonist quinpirole; n=9
Excerpt: (§1) The signals were further normalized according to Flag tagged D2R expression level. To normalize for different levels of surface expression levels of the Flag-D2R-Gqi5 mutant constructs, the Emax at each expression level (FIG. 12F) was plotted as a function of different levels of expression of Flag-tagged wt D2R-Gqi5, the expression of which was controlled by varying the time after tetracycline induction (FIG. 12A). The level of Myc-D2R remained essentially unchanged (FIG. 12B). The standard curve was fit to a 1 site rectangular hyperbola using nonlinear regression in GraphPad Prism 4.0 (GraphPad Software Inc., La Jolla, Calif.) (FIG. 12G). The luminescence response of the various Flag-D2R-Gqi5 constructs was normalized using this standard curve to account for the effects of different expression levels, with activation of 1 defined as that observed after 12 hours of tetracycline induction of WT D2R-Gqi5. The Flag detection was approximately 5-fold more sensitive than that of Myc; thus, the excess of Myc-tagged protomer A, which cannot signal on its own, ensures that normalization based on surface expression of the Flag-tagged Gqi5-fused protomer B accurately reflects the productive signaling entities, each of which must contain a protomer A and a protomer B.

[2] = target: T1, D2R coexpressed with free Gqi5 (Homo sapiens, UniProt P14416); format: cell-based; details: pertussis toxin 100 ng/ml 16-24 hours
T1 construct: signal peptide (N); expressed in transfected cells; host or cells: Flp-in T-rex 293 cells stably expressing aequorin

[3] = target: T2, D2R coexpressed with D2-Gqi5 (Homo sapiens, UniProt P14416); test: Aequorin functional complementation assay, D2R coexpressed with D2R-Gqi5; format: cell-based; details: pertussis toxin 100 ng/ml 16-24 hours
T2 construct: signal peptide (N); expressed in transfected cells; host or cells: Flp-in T-rex 293 cells stably expressing aequorin
Excerpt: as §1, with “B. […]” for “B.”

[4] = system: endogenous purinergic receptors; test: Aequorin assay, endogenous receptors in AEQ cells; format: cell-based
Excerpt: To enable isolation of the signaling of the D2R from endogenous G proteins, and to control each of the components of the signaling complex, Flp-In 1-Rex-293 cells were engineered to stably express aequorin (AEQ cells) (see Example 1). Aequorin produces luminescence in a calcium-dependent manner in the presence of the substrate coelenterazine (23, 24), and it has been used to create a sensitive luminescence readout for GPCR-mediated PLC activation (25). In these cells, endogenous muscarinic or purinergic receptors signaled robustly via endogenous Gq, resulting in strong agonist-induced (ACH and ATP, respectively) luminescence signals (FIG. 7A).

[5] = target: T3, SSTR5 coexpressed with D2R-Gqi5 (Homo sapiens, UniProt P14416+P35346); format: cell-based
T3 construct: signal peptide (N); expressed in transfected cells; host or cells: AEQ cells (Flp-in T-rex 293 with aequorin)

[6] = target: T4, SSTR5 coexpressed with D114A-Gqi5 (Homo sapiens, UniProt P35346); format: cell-based
T4 construct: signal peptide (N); expressed in transfected cells; host or cells: AEQ cells (Flp-in T-rex 293 with aequorin)
T4 sequence (P35346 whole entry, stated change not applied): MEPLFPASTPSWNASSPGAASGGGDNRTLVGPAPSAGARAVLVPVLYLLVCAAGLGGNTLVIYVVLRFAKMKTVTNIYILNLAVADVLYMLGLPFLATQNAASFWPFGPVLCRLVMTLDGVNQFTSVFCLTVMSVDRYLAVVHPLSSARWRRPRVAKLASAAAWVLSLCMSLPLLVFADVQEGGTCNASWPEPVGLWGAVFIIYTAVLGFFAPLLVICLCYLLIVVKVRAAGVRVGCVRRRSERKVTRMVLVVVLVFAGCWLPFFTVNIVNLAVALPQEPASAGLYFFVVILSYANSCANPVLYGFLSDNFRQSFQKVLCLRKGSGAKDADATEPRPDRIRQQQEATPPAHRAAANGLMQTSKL
T4 sequence (P14416 with tags, fused parts or gaps isoform P14416-2 D114A partner): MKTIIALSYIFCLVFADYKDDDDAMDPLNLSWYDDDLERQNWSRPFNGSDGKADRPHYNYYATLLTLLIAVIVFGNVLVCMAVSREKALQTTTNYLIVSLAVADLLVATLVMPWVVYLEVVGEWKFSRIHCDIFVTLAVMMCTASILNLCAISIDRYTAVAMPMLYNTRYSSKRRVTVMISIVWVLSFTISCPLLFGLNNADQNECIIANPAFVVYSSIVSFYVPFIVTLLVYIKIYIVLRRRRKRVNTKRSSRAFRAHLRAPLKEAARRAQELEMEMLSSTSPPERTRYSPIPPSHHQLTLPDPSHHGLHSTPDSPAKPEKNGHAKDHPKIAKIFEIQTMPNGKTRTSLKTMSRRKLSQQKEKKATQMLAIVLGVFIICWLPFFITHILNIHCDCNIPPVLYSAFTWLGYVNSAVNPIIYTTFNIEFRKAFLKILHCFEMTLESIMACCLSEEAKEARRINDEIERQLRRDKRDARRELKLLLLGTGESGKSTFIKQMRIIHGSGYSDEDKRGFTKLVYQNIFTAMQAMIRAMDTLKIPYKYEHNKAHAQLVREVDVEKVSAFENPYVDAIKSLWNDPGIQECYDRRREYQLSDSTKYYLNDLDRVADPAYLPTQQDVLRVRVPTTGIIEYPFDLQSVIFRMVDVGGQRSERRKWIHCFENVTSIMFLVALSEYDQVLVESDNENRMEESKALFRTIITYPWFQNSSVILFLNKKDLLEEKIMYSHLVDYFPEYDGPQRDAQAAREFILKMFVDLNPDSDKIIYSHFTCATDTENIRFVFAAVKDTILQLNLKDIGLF

T3 sequence (P35346 whole entry): as the sequence (P35346 whole entry, stated change not applied) above
T3 sequence (P14416 with tags, fused parts or gaps isoform P14416-2): as the sequence (P14416 with tags, fused parts or gaps isoform P14416-2 D114A partner) above, with A138D counted along it
T1 sequence (P14416 with tags, fused parts or gaps isoform P14416-2): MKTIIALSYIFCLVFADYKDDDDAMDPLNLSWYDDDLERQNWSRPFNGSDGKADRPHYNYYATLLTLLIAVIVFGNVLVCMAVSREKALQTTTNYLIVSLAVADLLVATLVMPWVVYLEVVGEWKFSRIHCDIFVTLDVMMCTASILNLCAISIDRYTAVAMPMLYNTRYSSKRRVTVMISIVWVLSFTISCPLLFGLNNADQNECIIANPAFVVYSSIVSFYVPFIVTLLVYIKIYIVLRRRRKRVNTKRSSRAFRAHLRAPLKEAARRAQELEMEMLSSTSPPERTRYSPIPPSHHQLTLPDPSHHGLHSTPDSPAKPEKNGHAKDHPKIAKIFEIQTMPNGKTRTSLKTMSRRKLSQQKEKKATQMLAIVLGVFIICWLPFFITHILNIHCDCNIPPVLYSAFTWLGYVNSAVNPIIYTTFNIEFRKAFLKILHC
T2 sequence (P14416 with tags, fused parts or gaps isoform P14416-2): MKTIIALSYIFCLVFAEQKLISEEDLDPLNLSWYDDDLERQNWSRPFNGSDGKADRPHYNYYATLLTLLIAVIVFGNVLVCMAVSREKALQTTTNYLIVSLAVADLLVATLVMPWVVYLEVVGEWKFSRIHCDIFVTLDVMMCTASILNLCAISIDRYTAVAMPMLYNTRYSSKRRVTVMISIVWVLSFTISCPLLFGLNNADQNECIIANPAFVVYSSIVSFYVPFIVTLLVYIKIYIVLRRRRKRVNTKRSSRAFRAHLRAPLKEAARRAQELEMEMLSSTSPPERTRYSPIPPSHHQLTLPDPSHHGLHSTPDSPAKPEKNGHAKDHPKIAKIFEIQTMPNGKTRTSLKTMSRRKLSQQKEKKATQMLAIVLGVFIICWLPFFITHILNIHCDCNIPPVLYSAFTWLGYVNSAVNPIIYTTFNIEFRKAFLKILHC
T2 sequence (P14416 with tags, fused parts or gaps isoform P14416-2): as the sequence (P14416 with tags, fused parts or gaps isoform P14416-2 D114A partner) above, with A138D counted along it

Cl.Cl.Cl.Clc1ccc(N2CCN(Cc3c[nH]c4ncccc34)CC2)cc1 [L745,870, 3-(4-[4-Chlorophenyl]piperazin-1-yl)-methyl-1H-pyrrolo[2,3-b]pyridine trihydrochloride]
maximal activation, % of that observed for D2R coexpressed with WT D2R-Gqi5 [1]: 156.7±7.3%

pertussis toxin
effect of PTX on increase in luminescence [2]: unaffected
effect of pertussis toxin treatment on activation [3]: lack of effect

Nc1ncnc2c1ncn2[C@@H]1O[C@H](COP(=O)(O)OP(=O)(O)OP(=O)(O)O)[C@@H](O)[C@H]1O [ATP]
agonist-induced luminescence signal via endogenous Gq [4]: strong

CCN1CCCC1CNC(=O)c1cc(S(N)(=O)=O)ccc1OC (centres unmarked) [sulpiride]
enhancement of potency of somatostatin by sulpiride relative to quinpirole ([5]; D2R inverse agonist sulpiride versus agonist quinpirole): about 6 fold
effect on SSTR5 activation (luminescence readout) ([5]; coadministration of 1 μM with somatostatin): enhanced
shift in the SST curve ([5]; in presence of compound, data not shown): full shift
effect on SSTR5 activation (luminescence readout) [6]: without effect
